Biological target: T1, bacteriophage T4 DNA polymerase (Enterobacteria phage T4, UniProt P04415)
T1 construct: made in house
T1 sequence (P04415 1-898): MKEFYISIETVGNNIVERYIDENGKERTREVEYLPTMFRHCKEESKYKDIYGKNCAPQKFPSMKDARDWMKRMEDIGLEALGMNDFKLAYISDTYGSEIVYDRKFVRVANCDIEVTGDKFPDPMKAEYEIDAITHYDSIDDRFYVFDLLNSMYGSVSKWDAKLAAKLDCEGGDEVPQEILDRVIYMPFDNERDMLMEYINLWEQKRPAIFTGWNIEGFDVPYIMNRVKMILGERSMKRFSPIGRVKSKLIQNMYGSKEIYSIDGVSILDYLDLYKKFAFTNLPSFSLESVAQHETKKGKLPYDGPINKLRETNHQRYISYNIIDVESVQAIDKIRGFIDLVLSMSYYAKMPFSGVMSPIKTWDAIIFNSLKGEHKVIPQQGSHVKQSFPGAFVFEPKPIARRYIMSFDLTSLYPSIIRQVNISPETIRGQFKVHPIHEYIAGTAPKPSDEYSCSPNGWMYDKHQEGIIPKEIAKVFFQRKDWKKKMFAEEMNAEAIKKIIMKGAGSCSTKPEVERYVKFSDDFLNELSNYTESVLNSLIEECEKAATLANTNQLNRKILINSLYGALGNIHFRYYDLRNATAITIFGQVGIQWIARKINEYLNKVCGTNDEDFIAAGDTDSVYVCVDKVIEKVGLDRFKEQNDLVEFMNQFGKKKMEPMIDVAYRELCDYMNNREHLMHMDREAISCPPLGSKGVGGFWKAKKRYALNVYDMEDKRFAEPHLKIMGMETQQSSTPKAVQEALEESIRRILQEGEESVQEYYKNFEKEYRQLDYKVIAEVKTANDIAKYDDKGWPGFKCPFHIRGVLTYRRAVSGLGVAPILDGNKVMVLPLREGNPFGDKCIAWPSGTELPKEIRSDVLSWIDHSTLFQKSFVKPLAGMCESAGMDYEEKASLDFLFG
Test: Counter-screen against bacteriophage T4 DNA polymerase
Assay type: biochemical
Details: for % inhibition T4 10' 2.5 / % inhibition T4 10' 5 / % inhibition T4 10' 10 / % inhibition T4 10' 20 / % inhibition T4 10' 40 / % inhibition T4 10' 80: read at 10'; for % inhibition T4 70' 2.5 / % inhibition T4 70' 5 / % inhibition T4 70' 10 / % inhibition T4 70' 20 / % inhibition T4 70' 40 / % inhibition T4 70' 80: read at 70'; for % inhibition T4 130' 2.5 / % inhibition T4 130' 5 / % inhibition T4 130' 10 / % inhibition T4 130' 20 / % inhibition T4 130' 40 / % inhibition T4 130' 80: read at 130'; for % inhibition T4 40' 2.5 / % inhibition T4 40' 5 / % inhibition T4 40' 10 / % inhibition T4 40' 20 / % inhibition T4 40' 40 / % inhibition T4 40' 80: read at 40'; for % inhibition T4 90' 2.5 / % inhibition T4 90' 5 / % inhibition T4 90' 10 / % inhibition T4 90' 20 / % inhibition T4 90' 40 / % inhibition T4 90' 80: read at 90'; for % inhibition T4 180' 2.5 / % inhibition T4 180' 5 / % inhibition T4 180' 10 / % inhibition T4 180' 20 / % inhibition T4 180' 40 / % inhibition T4 180' 80: read at 180'
In short: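 IC50 values come from dose-response testing of each compound against T4 DNA polymerase. This B-family polymerase was purified in-house and used as the counter-screen.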

Structure (SMILES): N#Cc1c(O)nc(N2CCCCC2)nc1-c1ccc2c(c1)OCO2 [KU0083146]
- % inhibition T4 10' 2.5 (DRC-1, concentration 2.5): -1.681%
- % inhibition T4 10' 5 (DRC-1, concentration 5): -6.153%
- % inhibition T4 10' 10 (DRC-1, concentration 10): -0.208%
- % inhibition T4 10' 20 (DRC-1, concentration 20): -4.89%
- % inhibition T4 10' 40 (DRC-1, concentration 40): 2.23%
- % inhibition T4 10' 80 (DRC-1, concentration 80): 27.8578%
- % inhibition T4 70' 2.5 (DRC-1, concentration 2.5): -2.1541%
- % inhibition T4 70' 5 (DRC-1, concentration 5): -7.277%
- % inhibition T4 70' 10 (DRC-1, concentration 10): -0.8576%
- % inhibition T4 70' 20 (DRC-1, concentration 20): -6.699%
- % inhibition T4 70' 40 (DRC-1, concentration 40): -0.3941%
- % inhibition T4 70' 80 (DRC-1, concentration 80): 25.8853%
- % inhibition T4 130' 2.5 (DRC-1, concentration 2.5): -4.596%
- % inhibition T4 130' 5 (DRC-1, concentration 5): -9.967%
- % inhibition T4 130' 10 (DRC-1, concentration 10): -3.465%
- % inhibition T4 130' 20 (DRC-1, concentration 20): -8.629%
- % inhibition T4 130' 40 (DRC-1, concentration 40): -2.723%
- % inhibition T4 130' 80 (DRC-1, concentration 80): 26.2784%
- % inhibition T4 10' 2.5 (DRC-2, concentration 2.5): 12%
- % inhibition T4 10' 5 (DRC-2, concentration 5): 9%
- % inhibition T4 10' 10 (DRC-2, concentration 10): -0.482%
- % inhibition T4 10' 20 (DRC-2, concentration 20): -17%
- % inhibition T4 10' 40 (DRC-2, concentration 40): -12%
- % inhibition T4 10' 80 (DRC-2, concentration 80): -1.89%
- % inhibition T4 40' 2.5 (DRC-2, concentration 2.5): 13%
- % inhibition T4 40' 5 (DRC-2, concentration 5): 10%
- % inhibition T4 40' 10 (DRC-2, concentration 10): 2%
- % inhibition T4 40' 20 (DRC-2, concentration 20): -13%
- % inhibition T4 40' 40 (DRC-2, concentration 40): -9%
- % inhibition T4 40' 80 (DRC-2, concentration 80): 3.39%
- % inhibition T4 90' 2.5 (DRC-2, concentration 2.5): 13%
- % inhibition T4 90' 5 (DRC-2, concentration 5): 12%
- % inhibition T4 90' 10 (DRC-2, concentration 10): 2.84%
- % inhibition T4 90' 20 (DRC-2, concentration 20): -10%
- % inhibition T4 90' 40 (DRC-2, concentration 40): -5.54%
- % inhibition T4 90' 80 (DRC-2, concentration 80): 3.63%
- % inhibition T4 180' 2.5 (DRC-2, concentration 2.5): 12%
- % inhibition T4 180' 5 (DRC-2, concentration 5): 11%
- % inhibition T4 180' 10 (DRC-2, concentration 10): 4%
- % inhibition T4 180' 20 (DRC-2, concentration 20): -10%
- % inhibition T4 180' 40 (DRC-2, concentration 40): -6.49%
- % inhibition T4 180' 80 (DRC-2, concentration 80): 2.15%

Structure (SMILES): O=[N+]([O-])c1ccc(/C=C/c2ccc3ccccc3n2)o1 [Molecule 21, O=N(=O)c1ccc(o1)/C=C/c1ccc2c(n1)cccc2]
- % inhibition T4 10' (DRC-2, concentration 2.5): 23%
- % inhibition T4 10' (DRC-2, concentration 5): 25%
- % inhibition T4 40' (DRC-2, concentration 2.5): 25%
- % inhibition T4 40' (DRC-2, concentration 20): 37%
- % inhibition T4 40' (DRC-2, concentration 80): 32%
- % inhibition T4 90' (DRC-2, concentration 2.5): 23%
- % inhibition T4 90' (DRC-2, concentration 10): 32%
- % inhibition T4 90' (DRC-2, concentration 80): 37%
- % inhibition T4 180' (DRC-2, concentration 10): 25%
- % inhibition T4 180' (DRC-2, concentration 40): 37%

Structure (SMILES): Cc1nc(/N=N/c2ccc(C(=O)[O-])cc2)c(COP(=O)([O-])[O-])c(C=O)c1O.[Na+].[Na+].[Na+] [KU0261395]
- % inhibition T4 10' (DRC-2, concentration 2.5): -16%
- % inhibition T4 10' (DRC-2, concentration 5): -9%
- % inhibition T4 10' (DRC-2, concentration 40): -10%
- % inhibition T4 10' (DRC-2, concentration 80): -18%
- % inhibition T4 40' (DRC-2, concentration 2.5): -20%
- % inhibition T4 40' (DRC-2, concentration 5): -16%
- % inhibition T4 40' (DRC-2, concentration 80): -18%
- % inhibition T4 90' (DRC-2, concentration 2.5): -20%
- % inhibition T4 90' (DRC-2, concentration 5): -18%
- % inhibition T4 90' (DRC-2, concentration 10): -9%
- % inhibition T4 90' (DRC-2, concentration 40): -11%
- % inhibition T4 180' (DRC-2, concentration 20): -9%
- % inhibition T4 180' (DRC-2, concentration 40): -11%
- % inhibition T4 180' (DRC-2, concentration 80): -10%

Structure (SMILES): Cc1cccc(-c2noc(C(=O)NNC(=O)C(Cl)(Cl)Cl)n2)c1 [KU0266208]
- % inhibition T4 10' 2.5 (DRC-1, concentration 2.5): 1.001%
- % inhibition T4 10' 5 (DRC-1, concentration 5): -2.3946%
- % inhibition T4 10' 10 (DRC-1, concentration 10): 2.959%
- % inhibition T4 10' 20 (DRC-1, concentration 20): 3.222%
- % inhibition T4 10' 40 (DRC-1, concentration 40): 8.397%
- % inhibition T4 10' 80 (DRC-1, concentration 80): 7.879%
- % inhibition T4 70' 2.5 (DRC-1, concentration 2.5): 1.555%
- % inhibition T4 70' 5 (DRC-1, concentration 5): -1.004%
- % inhibition T4 70' 10 (DRC-1, concentration 10): 1.596%
- % inhibition T4 70' 20 (DRC-1, concentration 20): 0.3208%
- % inhibition T4 70' 40 (DRC-1, concentration 40): 4.827%
- % inhibition T4 70' 80 (DRC-1, concentration 80): 4.906%
- % inhibition T4 130' 2.5 (DRC-1, concentration 2.5): -1.03%
- % inhibition T4 130' 5 (DRC-1, concentration 5): -3.982%
- % inhibition T4 130' 10 (DRC-1, concentration 10): -1.107%
- % inhibition T4 130' 20 (DRC-1, concentration 20): -3.27%
- % inhibition T4 130' 40 (DRC-1, concentration 40): 2.252%
- % inhibition T4 130' 80 (DRC-1, concentration 80): 3.008%
- % inhibition T4 10' 2.5 (DRC-2, concentration 2.5): 7%
- % inhibition T4 10' 5 (DRC-2, concentration 5): -1.26%
- % inhibition T4 10' 10 (DRC-2, concentration 10): -5%
- % inhibition T4 10' 20 (DRC-2, concentration 20): -8%
- % inhibition T4 10' 40 (DRC-2, concentration 40): -12%
- % inhibition T4 10' 80 (DRC-2, concentration 80): -4.34%
- % inhibition T4 40' 2.5 (DRC-2, concentration 2.5): 7%
- % inhibition T4 40' 5 (DRC-2, concentration 5): -1.26%
- % inhibition T4 40' 10 (DRC-2, concentration 10): -5%
- % inhibition T4 40' 20 (DRC-2, concentration 20): -8%
- % inhibition T4 40' 40 (DRC-2, concentration 40): -12%
- % inhibition T4 40' 80 (DRC-2, concentration 80): -4.34%
- % inhibition T4 90' 2.5 (DRC-2, concentration 2.5): 7%
- % inhibition T4 90' 5 (DRC-2, concentration 5): -1.21%
- % inhibition T4 90' 10 (DRC-2, concentration 10): -5%
- % inhibition T4 90' 20 (DRC-2, concentration 20): -8%
- % inhibition T4 90' 40 (DRC-2, concentration 40): -10%
- % inhibition T4 90' 80 (DRC-2, concentration 80): -1.44%
- % inhibition T4 180' 2.5 (DRC-2, concentration 2.5): 1.78%
- % inhibition T4 180' 5 (DRC-2, concentration 5): -5.37%
- % inhibition T4 180' 10 (DRC-2, concentration 10): -9%
- % inhibition T4 180' 20 (DRC-2, concentration 20): -11%
- % inhibition T4 180' 40 (DRC-2, concentration 40): -9%
- % inhibition T4 180' 80 (DRC-2, concentration 80): 0.715%

From article PMC9090415, “Discovery of small molecule inhibitors of Plasmodium falciparum apicoplast DNA polymerase” (Journal of Enzyme Inhibition and Medicinal Chemistry, 2022)
